Legend:
ENPP-1 [1] = biological target: T1, ENPP-1 (Homo sapiens, UniProt P22413); test: ENPP-1 enzyme assay with pNP-TMP substrate; format: biochemical; details: 12.5 ng ENPP-1, 720 μM substrate pNP-TMP, pH 9.0, 37° C., 60 minutes, absorbance 405 nm; average IC50
T1 construct: purchased Biovendor RD172124100
T1 sequence (P22413 1-925): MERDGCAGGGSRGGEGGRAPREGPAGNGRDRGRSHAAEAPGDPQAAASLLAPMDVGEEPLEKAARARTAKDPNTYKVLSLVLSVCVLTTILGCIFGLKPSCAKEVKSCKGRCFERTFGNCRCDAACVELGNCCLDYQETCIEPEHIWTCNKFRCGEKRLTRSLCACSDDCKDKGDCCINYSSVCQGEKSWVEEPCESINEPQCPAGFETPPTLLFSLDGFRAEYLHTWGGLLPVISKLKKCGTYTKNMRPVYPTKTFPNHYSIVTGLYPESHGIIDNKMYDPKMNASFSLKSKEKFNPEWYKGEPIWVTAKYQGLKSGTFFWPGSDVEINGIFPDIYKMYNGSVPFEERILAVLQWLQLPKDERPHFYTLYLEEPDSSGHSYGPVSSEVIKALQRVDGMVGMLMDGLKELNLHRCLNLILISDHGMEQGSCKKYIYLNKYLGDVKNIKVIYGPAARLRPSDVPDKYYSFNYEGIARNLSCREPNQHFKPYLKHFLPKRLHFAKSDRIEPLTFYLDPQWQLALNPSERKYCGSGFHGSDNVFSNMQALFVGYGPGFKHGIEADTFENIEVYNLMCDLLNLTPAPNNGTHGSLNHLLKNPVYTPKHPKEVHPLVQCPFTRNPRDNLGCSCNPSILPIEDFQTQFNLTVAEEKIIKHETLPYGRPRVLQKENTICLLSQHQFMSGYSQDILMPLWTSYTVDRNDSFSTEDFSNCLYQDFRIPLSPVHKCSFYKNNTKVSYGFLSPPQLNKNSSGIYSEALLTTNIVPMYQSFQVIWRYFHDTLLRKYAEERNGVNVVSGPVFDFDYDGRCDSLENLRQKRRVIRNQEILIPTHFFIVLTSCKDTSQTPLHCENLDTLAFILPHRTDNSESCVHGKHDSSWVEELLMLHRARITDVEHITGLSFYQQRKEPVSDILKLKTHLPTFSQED
Description: In order to measure the ENPP-1 inhibitory activity of the compounds according to the present disclosure, the following tests were performed.
ENPP-1 hydrolyzes a variety of substrates, including phosphodiester bonds of nucleotides and nucleotide sugars and pyrophosphate bonds of nucleotides and nucleotide sugars. p-Nitrophenyl 5′-thymidine monophosphate (p-Nph-5′-TMP) is an artificial substrate for 5′-adenosine monophosphate (AMP), which is hydrolyzed by the human recombinant ENPP-1 enzyme. In the above reaction, ENPP-1 enzymatic activity is monitored through the formation of yellow p-nitrophenolate, which absorbs at 405 nm.
First, the reaction mixture contains 100 mM Tris-HCl (pH 9.0), 150 mM NaCl, […], and 1% DMSO. Serially diluted ENPP-1 inhibitors (test compound concentrations ranging from 10 μM to 0.5 nM) are reacted with 12.5 ng of ENPP-1 (Biovendor, catalog number RD172124100) and 720 μM substrate pNP-TMP at 37° C. for 60 minutes. All assays include a DMSO control without ENPP-1 inhibitor that gives maximum absorbance.
(§1) After 60 minutes of this reaction, the […] is measured using an Epoch™ Microplate Spectrophotometer (BioTek Instruments Inc.). Inhibition (%) is calculated using the following formula: Sample OD405 nm/Max OD405 nm×100%. % residual ENPP-1 enzyme activity versus IC50 values for ENPP-1 inhibitor concentrations were determined by fitting inhibition curves using the 4-parameter method of GraphPad Prism® software [GraphPad version 9.3.1 for Windows, GraphPad Software, La Jolla California USA, www.graphpad.com].

ENPP-1 [2] = biological target: T1, ENPP-1; test: ENPP-1 enzyme assay with cGAMP substrate; format: biochemical; details: 200 pM ENPP-1, 10 μM substrate 2′3′-cGAMP, pH 7.4, 37° C., 30 minutes, Transcreener AMP2/GMP2 kit; average IC50
Description: 2′3′-cGAMP is a natural substrate specifically hydrolyzed by ENPP-1, and produces 5′-adenosine monophosphate (AMP) and 5′-guanosine monophosphate (GMP). AMP and GMP produced from the reaction are monitored for ENPP-1 enzyme activity through an AMP^2/GMP^2 ENPP-1 Assay kit (Bellbrook Labs, catalog number 3015).
First, the reaction mixture contains 25 mM Tris-HCl (pH 7.4), 5 mM MgCl2, 0.01% Brij-35, and 1% DMSO. Serially diluted ENPP-1 inhibitors (test compound concentrations ranging from 10 μM to 0.5 nM) are reacted with 200 pM ENPP-1 (Biovendor, catalog number RD172124100) and 10 μM substrate 2′3′-cGAMP at 37° C. for 30 minutes. All assays include a DMSO control without ENPP-1 inhibitor that provides maximal AMP and GMP production. After 30 minutes of this reaction, AMP and GMP production is detected as a measure of ENPP-1 enzymatic activity using the Transcreener® AMP^2/GMP^2 ENPP-1 Assay kit. The detection reagent is a reagent containing 16 nM AMP^2/GMP^2 Antibody-Tb, 25 mM Tris-HCl and 60.1 nM AMP/GMP HiLyte647 Tracer, which is added by 5 μl, mixed well, and incubated at 25° C. for 2 hours.
as §1, with “The” for “After 60 minutes of this reaction, the”, “a SPARK Cyto plate reader (Tecan).” for “an Epoch™ Microplate Spectrophotometer (BioTek Instruments Inc.).”, “(Max 615:665 ratio-615:665 ratio)/Max 615:665 ratio×100%.” for “Sample OD405 nm/Max OD405 nm×100%.”

SMILES | IC50 (ENPP-1 [1]) | IC50 (ENPP-1 [2])
COc1ccc2c(c1)c1ncccc1n2Cc1ccc(P(=O)(O)O)cc1 [Compound 13, (4-((8-methoxy-5H-pyrido[3,2-b]indol-5-yl)methyl)phenyl)phosphonic acid] | < 1000 nM | < 1000 nM
COc1ccc2c(c1)c1ncccc1n2Cc1ccc(CP(=O)(O)O)cc1 [Compound 14, (4-((8-methoxy-5H-pyrido[3,2-b]indol-5-yl)methyl)benzyl)phosphonic acid] | < 1000 nM | < 1000 nM
COc1ccc2c(c1)c1ncccc1n2Cc1ccc(S(N)(=O)=O)cc1F [Compound 15, 3-fluoro-4-((8-methoxy-5H-pyrido[3,2-b]indol-5-yl)methyl)benzenesulfonamide] | < 1000 nM | < 1000 nM
COc1ccc2c(c1)c1ncccc1n2Cc1ccc(S(N)(=O)=O)cc1Cl [Compound 16, 3-chloro-4-((8-methoxy-5H-pyrido[3,2-b]indol-5-yl)methyl)benzenesulfonamide] | < 1000 nM | < 1000 nM
COc1ccc2c(c1)c1ncccc1n2Cc1ccc(S(C)(=N)=O)cc1F (stereo not shown) [Compound 17, (3-fluoro-4-((8-methoxy-5H-pyrido[3,2-b]indol-5-yl)methyl)phenyl)(imino)(methyl)-l6-sulfanone] | < 1000 nM | < 1000 nM
COc1ccc2c(c1)c1ncccc1n2Cc1ccc(S(C)(=N)=O)cc1C (stereo not shown) [Compound 18, imino (4-((8-methoxy-5H-pyrido[3,2-b]indol-5-yl)methyl)-3-methylphenyl)(methyl)-l6-sulfanone] | < 1000 nM | < 1000 nM
COc1ccc2c(c1)c1ncccc1n2Cc1ccc(S(C)(=N)=O)cc1OC (stereo not shown) [Compound 19, imino (3-methoxy-4-((8-methoxy-5H-pyrido[3,2-b]indol-5-yl)methyl)phenyl)(methyl)-l6-sulfanone] | < 1000 nM | < 1000 nM
COc1ccc2c(c1)c1ncccc1n2Cc1ccc(S(C)(=N)=O)c(F)c1 (stereo not shown) [Compound 20, (2-fluoro-4-((8-methoxy-5H-pyrido[3,2-b]indol-5-yl)methyl)phenyl)(imino)(methyl)-l6-sulfanone] | < 1000 nM | < 1000 nM
NS(=O)(=O)c1ccc(Cn2c3ccc(Cl)cc3c3ncccc32)cc1 [Compound 21, 4-((8-chloro-5H-pyrido[3,2-b]indol-5-yl)methyl)benzenesulfonamide] | < 1000 nM | < 1000 nM
NS(=O)(=O)c1ccc(Cn2c3ccc(OC(F)(F)F)cc3c3ncccc32)cc1 [Compound 22, 4-((8-(trifluoromethoxy)-5H-pyrido[3,2-b]indol-5-yl)methyl)benzenesulfonamide] | < 1000 nM | 1000 to 10000 nM
Cc1ccc2c(c1)c1ncccc1n2Cc1ccc(S(C)(=N)=O)cc1 (stereo not shown) [Compound 23, imino(methyl) (4-((8-methyl-5H-pyrido[3,2-b]indol-5-yl)methyl)phenyl)-l6-sulfanone] | < 1000 nM | < 1000 nM
CCOc1ccc2c(c1)c1ncccc1n2Cc1ccc(S(C)(=N)=O)cc1 (stereo not shown) [Compound 24, (4-((8-ethoxy-5H-pyrido[3,2-b]indol-5-yl)methyl)phenyl)(imino)(methyl)-l6-sulfanone] | 1000 to 10000 nM | < 1000 nM
COc1cc(F)c2c(c1)c1ncccc1n2Cc1ccc(S(N)(=O)=O)cc1 [Compound 25, 4-((6-fluoro-8-methoxy-5H-pyrido[3,2-b]indol-5-yl)methyl)benzenesulfonamide] | < 1000 nM | 1000 to 10000 nM
COc1cc(C)c2c(c1)c1ncccc1n2Cc1ccc(S(N)(=O)=O)cc1 [Compound 26, 4-((8-methoxy-6-methyl-5H-pyrido[3,2-b]indol-5-yl)methyl)benzenesulfonamide] | < 1000 nM | < 1000 nM
COc1cc(Cl)c2c(c1)c1ncccc1n2Cc1ccc(S(N)(=O)=O)cc1 [Compound 27, 4-((6-chloro-8-methoxy-5H-pyrido[3,2-b]indol-5-yl)methyl)benzenesulfonamide] | < 1000 nM | 1000 to 10000 nM
COc1cc2c3ncccc3n(Cc3ccc(S(N)(=O)=O)cc3)c2cc1OC [Compound 28, 4-((7,8-dimethoxy-5H-pyrido[3,2-b]indol-5-yl)methyl)benzenesulfonamide] | < 1000 nM | < 1000 nM
COc1cc2c3ncccc3n(Cc3ccc(S(N)(=O)=O)cc3)c2cc1F [Compound 29, 4-((7-fluoro-8-methoxy-5H-pyrido[3,2-b]indol-5-yl)methyl)benzenesulfonamide] | < 1000 nM | < 1000 nM
COc1cc2c3ncccc3n(Cc3ccc(S(C)(=N)=O)cc3F)c2cc1F (stereo not shown) [Compound 31, (3-fluoro-4-((7-fluoro-8-methoxy-5H-pyrido[3,2-b]indol-5-yl)methyl)phenyl)(imino)(methyl)-l6-sulfanone] | < 1000 nM | < 1000 nM
COc1cc2c(cc1F)c1ncccc1n2Cc1ccc(S(C)(=N)=O)cc1 (stereo not shown) [Compound 32, (4-((8-fluoro-7-methoxy-5H-pyrido[3,2-b]indol-5-yl)methyl)phenyl)(imino)(methyl)-l6-sulfanone] | < 1000 nM | < 1000 nM
COc1cnc2c(c1)c1c(n2Cc2ccc(S(N)(=O)=O)cc2)CNCC1 [Compound 34, 4-((3-methoxy-5,6,7,8-tetrahydro-9H-pyrrolo[2,3-b:5,4-c′]dipyridin-9-yl)methyl)benzene sulfonamide] | > 10000 nM | > 10000 nM
COc1ccc2c3c(n(Cc4ccc(S(N)(=O)=O)cc4)c2c1)CCNC3 [Compound 35, 4-((7-methoxy-1,2,3,4-tetrahydro-5H-pyrido[4,3-b]indol-5-yl)methyl)benzenesulfonamide] | < 1000 nM | 1000 to 10000 nM
COc1ccc2c(c1)c1c(n2Cc2ccc(S(N)(=O)=O)cc2)CCNC1 [Compound 36, 4-((8-methoxy-1,2,3,4-tetrahydro-5H-pyrido[4,3-b]indol-5-yl)methyl)benzenesulfonamide] | 1000 to 10000 nM | > 10000 nM
COc1ccc2c3c(n(Cc4ccc(S(N)(=O)=O)cc4)c2c1)CCCN3 [Compound 37, 4-((7-methoxy-1,2,3,4-tetrahydro-5H-pyrido[3,2-b]indol-5-yl)methyl)benzenesulfonamide] | < 1000 nM | > 10000 nM

From patent US20250367173A1, “ECTONUCLEOTIDE PYROPHOSPHATASE-PHOSPHODIESTERASE-1 INHIBITORS AND PHARMACEUTICAL COMPOSITIONS COMPRISING THE SAME” (LigaChem Biosciences Inc., priority 2022, published 2025)
